In PMC12314110, “Evaluation of Potential Effects of CYP3A Inhibition and CYP3A Induction on the Pharmacokinetics of Fruquintinib in Healthy Subjects” (Clinical Pharmacology in Drug Development, 2025):

Tests used:
[1] = Safety assessments (adverse events) in healthy subjects; assay type: in vivo, human; conditions: Part B, after rifampin alone (Treatment Period 2); back pain, 1/14 subjects, mild (Grade 1), unrelated to study treatment
Description: Safety was assessed by evaluation of adverse events (AEs), serious AEs, AEs of special interest, physical examinations, vital signs, single 12‐lead electrocardiograms and cardiac monitoring, and clinical laboratory data. All AEs were coded using the Medical Dictionary for Regulatory Activities Version 23.0, and their severity was graded using the National Cancer Institute Common Terminology Criteria for Adverse Events Version 5.0.

[2] = design: method as in PMID 9925057; conditions: cited from earlier work

CO[C@H]1/C=C/O[C@@]2(C)Oc3c(C)c(O)c4c(O)c(c(/C=N/N5CCN(C)CC5)c(O)c4c3C2=O)NC(=O)/C(C)=C\C=C\[C@H](C)[C@H](O)[C@@H](C)[C@@H](O)[C@@H](C)[C@H](OC(C)=O)[C@@H]1C [rifampin, reference compound]
treatment‐emergent AE incidence [1]: 7.1% | reduction of absorption when ingested with food [2]: approximately 30%
